Data from US20210009557A1, “ACYCLIC CXCR4 INHIBITORS AND USES THEREOF” (X4 Pharmaceuticals, Inc., priority 2017, published 2021).

Columns and labels:
in vitro = conditions: human, Caco-2, pH 7.4
Protocol: The goal of this assay was to evaluate the intestinal absorption potential of drug candidates using Caco-2 cell lines.
Experimental Procedure • 1. Pre-warm Pre-warm HBSS Buffer in 37° C. water bath • 2. Sonicate Take compounds from −20° C., sonicate for a few minutes (no less than 1 minute) • 3. Solution preparation
For A-to-B Direction: • HBSS buffer with 0.3% DMSO and 5 μM LY: add 150 μL DMSO and 50 μL LY (5 mM) into 50 ml HBSS buffer (pH 7.4). • HBSS buffer with 0.1% DMSO and 5 μM LY: add 50 μL DMSO and 50 μL LY (5 mM) into 50 mL HBSS buffer (pH 7.4).
For B-to-A Direction: • HBSS buffer with 0.3% DMSO: add 150 μL DMSO into 50 ml HBSS buffer (pH 7.4). HBSS buffer with 0.1% DMSO: add 50 μL DMSO into 50 ml HBSS buffer (pH 7.4).
For A-to-B Direction: • Prepare HBSS buffer with 0.4% DMSO: add 200 μL DMSO into 50 ml HBSS buffer (pH 7.4).
For B-to-A Direction: • Prepare HBSS buffer with 0.4% DMSO and 5 μM LY: add 200 μL DMSO and 50 μL LY (5 mM) into 50 ml HBSS buffer (pH 7.4).
• 4. Measure TEER Take cell culture plate out of incubator, wash the cell monolayers with HBSS buffer, and then measure TEER values at Rm temperature. • 5. Centrifuge Centrifuge the compound solution (from step 3) at 4000 rpm for 5 min before loading to donor chambers. • 6. Dosing Add solution based on the volumes listed in the following table (make sure to take extra 100 μL of donor sample for T0 as Backup).
• 7. Apical LYTO samples To determine LY concentration in the apical chamber, take 100 μL sample from apical chambers into an opaque plate for LYTO. • 8. Pre-warm Pre-warm apical and basolateral plates at 37° C. for about 5 min, then begin transport by placing the apical plate onto basolateral plate. • 9. Incubation Keep the plates in incubator at 37° C. for 90 min. • 10.
• Prepare 1× solution: • 3 μL (20×)+57 μL of 0.4% DMSO HBSS+60 μL ACN with IS (Osalmid or Imipramine)—120 μL (1×) • 11. Transport termination Separate the apical plate from the basolateral plate after 90-min incubation. • 12. Measure LY Take 100 μL samples from basolateral plate to an opaque plate as LYT90. • 13. Measure LY concentrations for LYTO and LYT90 by Fluorometer (at excitation of 485 nm/emission of 535 nm). • 14.
Drug permeability: Papp=(VA/(Area×time))×([drug]accepter/(([drug]initial, donor)×Dilution Factor) • Where VA is the volume in the acceptor well, area is the surface area of the membrane and time is the total transport time in seconds.
For Millicell-24 Cell Culture Plates: surface area of the membrane=0.7 cm^2, VA=0.8 mL (A-to-B) or 0.4 mL (B-to-A)

[1] = target: T1, CXCR-4 transfected U87 cell line (U87.CXCR4) (Homo sapiens, UniProt P61073); assay: Intracellular CXCL-12-induced calcium mobilization assay (FLIPR); assay type: cell-based; conditions: U87.CXCR4 cells; CXCL-12 25-50 ng/mL; compounds added 15 minutes before; read-out: IC50 CXCL-12 Ca2+ flux U87.CXCR4+
T1 construct: expressed in transfected cells; host or cells: U87 cell line (U87.CXCR4)
T1 sequence (P61073 whole entry): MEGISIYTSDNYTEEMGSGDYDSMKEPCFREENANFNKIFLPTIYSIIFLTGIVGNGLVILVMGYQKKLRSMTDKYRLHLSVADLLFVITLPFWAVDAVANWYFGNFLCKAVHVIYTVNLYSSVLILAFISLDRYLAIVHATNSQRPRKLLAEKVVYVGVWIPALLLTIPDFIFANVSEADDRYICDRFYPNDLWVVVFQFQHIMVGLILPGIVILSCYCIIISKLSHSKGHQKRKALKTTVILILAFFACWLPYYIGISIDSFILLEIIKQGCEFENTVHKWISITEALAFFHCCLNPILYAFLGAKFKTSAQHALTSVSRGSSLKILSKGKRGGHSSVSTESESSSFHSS
Protocol: Intracellular calcium mobilization induced by chemokines orchemokine-derived peptides were evaluated using a calcium responsive fluorescent probe and a FLIPR system. The CXCR-4 transfected U87 cell line (U87.CXCR4) cells were seeded in gelatine-coated black-wall 96-well plates at 20,000 cells per well and incubated for 12 hours. Cells were then loaded with the fluorescent calcium probe Fluo-2 acetoxymethyl at 4 μM final concentration in assay buffer (Hanks' balanced salt solution with 20 mM HEPES buffer and 0.2% bovine serum albumin, pH 7.4) for 45 min at 37′C. The intracellular calcium mobilization induced by the CXCL-12 (25-50 ng/mL) was then measured at 37° C. by monitoring the fluorescence as a function of time in all the wells simultaneously using a fluorometric imaging plate reader (FLIPR Tetra, Molecular Devices).

[2] = target: T2, Jurkat cells expressing CXCR4 (Homo sapiens, UniProt P61073); assay: Chemokine (CXCL12-AF647) binding inhibition assay; conditions: CXCL12-AF647 25 ng/mL, read-out: IC50 CXCL-12 binding Jurkat
T2 construct: Jurkat cells expressing CXCR4; endogenous in cells; host or cells: Jurkat cells
T2 sequence (P61073 whole entry): as above
Protocol: Jurkat cells expressing CXCR4 were washed once with assay buffer (Hanks' balanced salt solution with 20 mM HEPES buffer and 0.2% bovine serum albumin, pH 7.4) and then incubated for 15 min at room temperature with the test compounds diluted in assay buffer at dose-dependent concentrations. Subsequently, CXCL12-AF647 (25 ng/mL) was added to the compound-incubated cells. The cells were incubated for 30 min at room temperature. Thereafter, the cells were washed twice in assay buffer, fixed in 1% paraformaldehyde in PBS, and analyzed on the FL4 channel of a FACSCalibur flow cytometer equipped with a 635-nm red diode laser (Becton Dickinson, San Jose, Calif., USA).
The percentages of inhibition of CXCL12-AF647 binding were calculated according to the formula: [1−((MFI−MFINC)/(MFIPC−MFINC))]×100 where MFI is the mean fluorescence intensity of the cells incubated with CXCL12-AF647 in the presence of the inhibitor, MFINC is the mean fluorescence intensity measured in the negative control (i.e., autofluorescence of unlabeled cells), and MFIPC is the mean fluorescence intensity of the positive control (i.e., cells exposed to CXCL12-AF647 alone).

Row | Structure (SMILES) | Papp A→B at 90 min, 10 μM (in vitro) [×10⁻⁶ cm/s] | Papp B→A at 90 min, 10 μM (in vitro) [×10⁻⁶ cm/s] | IC50 [1] [nM] | efflux ratio at 90 min, 10 μM (in vitro) | IC50 [2] [nM]
1 | COCCc1ccc(OCC(O)CNC(C)C)cc1 (stereo not drawn) [Metoprolol, reference compound] | > 10 | > 10 |  |  | 
2 | c1cnc2c(c1)CCC[C@@H]2N(CCc1cscn1)Cc1nc2ccccc2[nH]1 [Compound I-20] | > 10 | > 10 | 0.01 to 100 | 0.1 to 10 | 0.01 to 100
3 | Cc1cccnc1CN(CCc1cnc[nH]1)C(C)c1ccccn1 (stereo not drawn) [Compound I-8] | < 5 | > 10 | ≥ 1000 | 10 to 30 | 0.01 to 100
4 | CC(c1ccccn1)N(CCc1ccccn1)Cc1ccccn1 (stereo not drawn) [Compound I-1, 2-(Pyridin-2-yl)-N-(1-(pyridin-2-yl)ethyl)-N-(pyridin-2-ylmethyl)ethan-1-amine] |  |  | ≥ 1000 |  | 0.01 to 100
5 | CC(C)c1cccnc1CN(CCc1cnc[nH]1)Cc1ncccc1Cl [Compound I-35] | > 10 | > 10 | 100 to 1000 | 0.1 to 10 | 0.01 to 100
6 | Cc1cccnc1CN(CCC(N)=O)Cc1ncccc1-c1ccccc1 [Compound I-46] | > 10 | > 10 | ≥ 1000 | 0.1 to 10 | 0.01 to 100
7 | Cc1cccnc1CN(CCc1cnc[nH]1)Cc1ncccc1C [Compound I-9] | < 5 | > 10 | 0.01 to 100 | 10 to 30 | 0.01 to 100
8 | CC[C@H]1OC(=O)[C@H](C)[C@@H](O[C@H]2C[C@@](C)(OC)[C@@H](O)[C@H](C)O2)[C@H](C)[C@@H](O[C@@H]2O[C@H](C)C[C@H](N(C)C)[C@H]2O)[C@](C)(O)C[C@@H](C)C(=O)[C@H](C)[C@@H](O)[C@]1(C)O [Erythromycin, reference compound] |  |  |  | > 116 | 

More lines, now with the values ahead:

Row | Papp A→B at 90 min, 10 μM (in vitro) [×10⁻⁶ cm/s] | Papp B→A at 90 min, 10 μM (in vitro) [×10⁻⁶ cm/s] | IC50 [1] [nM] | efflux ratio at 90 min, 10 μM (in vitro) | IC50 [2] [nM] | Structure (SMILES)
9 | 5 to 10 | > 10 | 100 to 1000 | 0.1 to 10 | 0.01 to 100 | NC(=O)CCN(Cc1nccc2ccccc12)[C@H]1CCCc2cccnc21 [Compound I-49]
10 |  |  | 100 to 1000 |  | 0.01 to 100 | CC(=O)NCCN(Cc1ncccc1C)[C@H]1CCCc2cccnc21 [Compound I-30]
11 | 5 to 10 | > 10 | ≥ 1000 | 10 to 30 | 0.01 to 100 | Cc1cccnc1CN(CCC(N)=O)[C@H]1CCCc2cccnc21 [Compound I-23]
12 | 5 to 10 | > 10 | 0.01 to 100 | 0.1 to 10 | 0.01 to 100 | Cn1c(CN(CCc2c[nH]cn2)[C@H]2CCCc3cccnc32)nc2cccc(F)c21 [Compound I-44]
13 | < 5 | > 10 | ≥ 1000 | 0.1 to 10 | 0.01 to 100 | CC(C)c1cccnc1CN(CCC(N)=O)[C@H]1CCCc2cccnc21 [Compound I-48]
14 | < 5 | > 10 | ≥ 1000 | 10 to 30 | 0.01 to 100 | Cc1cccnc1CN(CCc1c[nH]cn1)[C@H]1CCCc2cccnc21 [Compound I-26]
